Where “and” joins values, the source holds several entries; their conditions need not be identical. Equal entries are not always repeated. Where a SMILES comes first, the peptide text is derived from it. [ ]: non-standard residue; d: D form. Hyp = O=C(O)[C@@H]1C[C@@H](O)CN1
Columns and labels:
IL-6 = assay: Example 8 main study Luminex, LPS hPBMCs: IL-6; format: cell-based, human; conditions: for IL-6 Concentration: single replicates (1st, 2nd, 3rd); for LPS-induced IL-6 (in words): at as low as 5 μM, LPS 5 ug/mL 24 hrs
Description: (§1) Human PBMCs were pretreated with YY-101, YDE-011, YDE-043 or reference compound; Xiidra® at various concentration (ranging from […] to 500 nM) for 2 h before stimulation. An equal volume of 0.5% DMSO was used as a vehicle control. Then, the cells were treated with LPS at 5 ug/ml, which was selected based on the pilot study. The supernatants from treated cells were harvested at 24 h and placed in a 96 well for Luminex cytokine & chemokine profiling using a Luminex 200 multiplex assay (Luminex; R&D system, USA).
(§2) The main study arm with triplicate wells per group in a 24-well plate: • 1. Blank • 2. PBMC: 0.5% DMSO • 3. PBMC+LPS (5 ug/ml) • 4. PBMC+YY-101 500 nM • 5. PBMC+YY-101 50 nM • 6. PBMC+YY-101 5 nM • 7. PBMC+YY-101 0.5 nM • 8. PBMC+LPS (5 ug/ml)+Xiidra® 500 nM • 9. PBMC+LPS (5 ug/ml)+Xiidra® 50 nM • 10. PBMC+LPS (5 ug/ml)+Xiidra® 5 nM • 11. PBMC+LPS (5 ug/ml)+Xiidra® 0.5 nM • 12. PBMC+LPS (5 ug/ml)+Xiidra® 0.05 nM • 13. PBMC+LPS (5 ug/ml)+Xiidra® 0.005 nM • 14. PBMC+LPS (5 ug/ml)+YY-101 500 nM • 15. PBMC+LPS (5 ug/ml)+YY-101 50 nM • 16. PBMC+LPS (5 ug/ml)+YY-101 5 nM • 17. PBMC+LPS (5 ug/ml)+YY-101 0.5 nM • 18. PBMC+LPS (5 ug/ml)+YY-101 0.05 nM • 19. PBMC+LPS (5 ug/ml)+YY-101 0.005 nM • 20. PBMC+LPS (5 ug/ml)+YDE-011 500 nM • 21. PBMC+LPS (5 ug/ml)+YDE-011 50 nM • 22. PBMC+LPS (5 ug/ml)+YDE-011 5 nM • 23. PBMC+LPS (5 ug/ml)+YDE-011 0.5 nM • 24. PBMC+LPS (5 ug/ml)+YDE-011 0.05 nM • 25. PBMC+LPS (5 ug/ml)+YDE-011 0.005 nM • 26. PBMC+LPS (5 ug/ml)+YDE-043 500 nM • 27. PBMC+LPS (5 ug/ml)+YDE-043 50 nM • 28. PBMC+LPS (5 ug/ml)+YDE-043 5 nM • 29. PBMC+LPS (5 ug/ml)+YDE-043 0.5 nM • 30. PBMC+LPS (5 ug/ml)+YDE-043 0.05 nM • 31. PBMC+LPS (5 ug/ml)+YDE-043 0.005 nM
(§3) Multiplex assay was used to measure 30 cytokines and chemokines. The 1:200 diluted cell supernatant and serial dilution of the standard were dispensed into a 96 well plate at 50 ul/well. Then, the pre-mixed cocktail of antibody-coated magnetic beads was dispensed at 50 ul/well and incubated at room temperature for 2 h in a horizontal orbital microplate shaker at 800±500 rpm. The beads were washed using a magnetic device to prevent loss. The biotin-antibody was dispensed in 50 ul of each well and incubated at room temperature for 1 h in a shaker at 800±500 rpm. After washing, streptavidin-PE was added at 50 ul/well and incubated at room temperature for 30 min in a shaker under the same conditions. Finally, after washing, wash buffer (100 ul/well) was added to the plate and incubated in a shaker for 2 min. The Luminex™ 200 setting were set according to the manufacturer's protocol. The data was calculated with a standard five-parameter logistic nonlinear regression analysis of the data (xPonent software 4.2, USA). Results were presented as concentration (ng/ml or pg/ml).

CCL4/MIP-1 beta = assay: Example 8 main study Luminex, LPS hPBMCs: CCL4/MIP-1 beta; format: cell-based, human; conditions: for LPS-induced CCL-4 (in words): at as low as 5 μM, LPS 5 ug/mL 24 hrs
Description: as §1, §2, §3

[1] = PBMC + LPS(5 ug/ml) + test article 0.005 nM
[2] = PBMC + LPS(5 ug/ml) + test article 0.05 nM
[3] = PBMC + LPS(5 ug/ml) + test article 0.5 nM
[4] = PBMC + LPS(5 ug/ml) + test article 5 nM
[5] = PBMC + LPS(5 ug/ml) + test article 50 nM
[6] = PBMC + LPS(5 ug/ml) + test article 500 nM
[7] = PBMC + LPS(5 ug/ml) + test article 0.005 nM, Mean
[8] = PBMC + LPS(5 ug/ml) + test article 0.005 nM, single replicates
[9] = PBMC + LPS(5 ug/ml) + test article 0.05 nM, Mean
[10] = PBMC + LPS(5 ug/ml) + test article 0.05 nM, single replicates
[11] = PBMC + LPS(5 ug/ml) + test article 0.5 nM, Mean
[12] = PBMC + LPS(5 ug/ml) + test article 0.5 nM, single replicates
[13] = PBMC + LPS(5 ug/ml) + test article 5 nM, Mean
[14] = PBMC + LPS(5 ug/ml) + test article 5 nM, single replicates
[15] = PBMC + LPS(5 ug/ml) + test article 50 nM, Mean
[16] = PBMC + LPS(5 ug/ml) + test article 50 nM, single replicates
[17] = PBMC + LPS(5 ug/ml) + test article 500 nM, Mean
[18] = PBMC + LPS(5 ug/ml) + test article 500 nM, single replicates

CC(C)C[C@H](NC(=O)[C@H](CCC(N)=O)NC(=O)CNC(=O)[C@@H]1C[C@@H](O)CN1)C(=O)NCC(=O)O [YDE-043] (H-[Hyp]GQLG-OH; N-terminus and C-terminus assumed)
IL-6 Concentration, Mean (IL-6; [1]): 17678.1 pg/mL | IL-6 Concentration (IL-6; [1]): 15726.2 pg/mL and 16772.5 pg/mL and 20535.6 pg/mL | IL-6 Concentration, Mean (IL-6; [2]): 14253.4 pg/mL | IL-6 Concentration (IL-6; [2]): 13386.9 pg/mL and 14716.3 pg/mL and 14657.0 pg/mL | IL-6 Concentration, Mean (IL-6; [3]): 14811.5 pg/mL | IL-6 Concentration (IL-6; [3]): 15322.2 pg/mL and 15084.6 pg/mL and 14027.7 pg/mL | IL-6 Concentration, Mean (IL-6; [4]): 16507.0 pg/mL | IL-6 Concentration (IL-6; [4]): 16380.0 pg/mL and 17224.5 pg/mL and 15916.4 pg/mL | IL-6 Concentration, Mean (IL-6; [5]): 16067.3 pg/mL | IL-6 Concentration (IL-6; [5]): 16962.8 pg/mL and 16570.3 pg/mL and 14668.8 pg/mL | IL-6 Concentration, Mean (IL-6; [6]): 14209.8 pg/mL | IL-6 Concentration (IL-6; [6]): 13873.4 pg/ml (2×) and 14882.6 pg/ml | LPS-induced IL-6 (in words) (IL-6): significantly reduced | CCL4/MIP-1 beta Concentration (CCL4/MIP-1 beta; [7]): 24223.5 pg/mL | CCL4/MIP-1 beta MFI (CCL4/MIP-1 beta; [7]): 13.7 | CCL4/MIP-1 beta Concentration (CCL4/MIP-1 beta; [8]): 22956.0 pg/mL and 30013.2 pg/mL and 19701.2 pg/mL | CCL4/MIP-1 beta MFI (CCL4/MIP-1 beta; [8]): 13.0 and 16.0 and 12.0 | CCL4/MIP-1 beta Concentration (CCL4/MIP-1 beta; [9]): 19701.2 pg/mL | CCL4/MIP-1 beta MFI (CCL4/MIP-1 beta; [9]): 12.0 | CCL4/MIP-1 beta Concentration (CCL4/MIP-1 beta; [10]): 19701.2 pg/mL | CCL4/MIP-1 beta MFI (CCL4/MIP-1 beta; [10]): 12.0 | CCL4/MIP-1 beta Concentration (CCL4/MIP-1 beta; [11]): 21871.1 pg/mL | CCL4/MIP-1 beta MFI (CCL4/MIP-1 beta; [11]): 12.7 | CCL4/MIP-1 beta Concentration (CCL4/MIP-1 beta; [12]): 22956.0 pg/ml (2×) and 19701.2 pg/ml | CCL4/MIP-1 beta MFI (CCL4/MIP-1 beta; [12]): 13.0 (2×) and 12.0 | CCL4/MIP-1 beta Concentration (CCL4/MIP-1 beta; [13]): 20786.2 pg/mL | CCL4/MIP-1 beta MFI (CCL4/MIP-1 beta; [13]): 12.3 | CCL4/MIP-1 beta Concentration (CCL4/MIP-1 beta; [14]): 19701.2 pg/ml (2×) and 22956.0 pg/ml | CCL4/MIP-1 beta MFI (CCL4/MIP-1 beta; [14]): 12.0 (2×) and 13.0 | CCL4/MIP-1 beta Concentration (CCL4/MIP-1 beta; [15]): 21205.1 pg/mL | CCL4/MIP-1 beta MFI (CCL4/MIP-1 beta; [15]): 12.5 | CCL4/MIP-1 beta Concentration (CCL4/MIP-1 beta; [16]): 22956.0 pg/ml (2×) and 17703.4 pg/ml | CCL4/MIP-1 beta MFI (CCL4/MIP-1 beta; [16]): 13.0 (2×) and 11.5 | CCL4/MIP-1 beta Concentration (CCL4/MIP-1 beta; [17]): 22762.3 pg/mL | CCL4/MIP-1 beta MFI (CCL4/MIP-1 beta; [17]): 13.0 | CCL4/MIP-1 beta Concentration (CCL4/MIP-1 beta; [18]): 25629.7 pg/mL and 22956.0 pg/mL and 19701.2 pg/mL | CCL4/MIP-1 beta MFI (CCL4/MIP-1 beta; [18]): 14.0 and 13.0 and 12.0 | LPS-induced CCL-4 (in words) (CCL4/MIP-1 beta): significantly reduced

CC(C)C[C@H](NC(=O)CNC(=O)[C@H](CC(C)C)NC(=O)[C@H](CCC(N)=O)NC(=O)CNC(=O)[C@@H]1C[C@@H](O)CN1)C(=O)N[C@@H](C)C(=O)NCC(=O)N1CCC[C@H]1C(=O)N[C@@H](CCCCN)C(=O)O [YDE-011] (H-[Hyp]GQLGLAGPK-OH)
IL-6 Concentration, Mean (IL-6; [1]): 16114.6 pg/mL | IL-6 Concentration (IL-6; [1]): 16843.8 pg/mL and 15250.9 pg/mL and 16249.2 pg/mL | IL-6 Concentration, Mean (IL-6; [2]): 18589.3 pg/mL | IL-6 Concentration (IL-6; [2]): 18843.4 pg/mL and 18343.3 pg/mL and 18581.4 pg/mL | IL-6 Concentration, Mean (IL-6; [3]): 15456.8 pg/mL | IL-6 Concentration (IL-6; [3]): 15322.2 pg/mL and 15654.9 pg/mL and 15393.5 pg/mL | IL-6 Concentration, Mean (IL-6; [4]): 13541.9 pg/mL | IL-6 Concentration (IL-6; [4]): 12094.3 pg/mL and 12947.9 pg/mL and 15583.6 pg/mL | IL-6 Concentration, Mean (IL-6; [5]): 14621.7 pg/mL | IL-6 Concentration (IL-6; [5]): 17248.3 pg/mL and 9892.0 pg/mL and 16724.9 pg/mL | IL-6 Concentration, Mean (IL-6; [6]): 14568.3 pg/mL | IL-6 Concentration (IL-6; [6]): 19367.5 pg/mL and 9383.5 pg/mL and 14953.9 pg/mL | LPS-induced IL-6 (in words) (IL-6): significantly reduced | CCL4/MIP-1 beta Concentration (CCL4/MIP-1 beta; [7]): 20786.2 pg/mL | CCL4/MIP-1 beta MFI (CCL4/MIP-1 beta; [7]): 12.3 | CCL4/MIP-1 beta Concentration (CCL4/MIP-1 beta; [8]): 19701.2 pg/ml (2×) and 22956.0 pg/ml | CCL4/MIP-1 beta MFI (CCL4/MIP-1 beta; [8]): 12.0 (2×) and 13.0 | CCL4/MIP-1 beta Concentration (CCL4/MIP-1 beta; [9]): 22956.0 pg/mL | CCL4/MIP-1 beta MFI (CCL4/MIP-1 beta; [9]): 13.0 | CCL4/MIP-1 beta Concentration (CCL4/MIP-1 beta; [10]): 22956.0 pg/mL | CCL4/MIP-1 beta MFI (CCL4/MIP-1 beta; [10]): 13.0 | CCL4/MIP-1 beta Concentration (CCL4/MIP-1 beta; [11]): 22956.0 pg/mL | CCL4/MIP-1 beta MFI (CCL4/MIP-1 beta; [11]): 13.0 | CCL4/MIP-1 beta Concentration (CCL4/MIP-1 beta; [12]): 22956.0 pg/mL | CCL4/MIP-1 beta MFI (CCL4/MIP-1 beta; [12]): 13.0 | CCL4/MIP-1 beta Concentration (CCL4/MIP-1 beta; [13]): 16738.7 pg/mL | CCL4/MIP-1 beta MFI (CCL4/MIP-1 beta; [13]): 11.3 | CCL4/MIP-1 beta Concentration (CCL4/MIP-1 beta; [14]): 15257.5 pg/ml (2×) and 19701.2 pg/ml | CCL4/MIP-1 beta MFI (CCL4/MIP-1 beta; [14]): 11.0 (2×) and 12.0 | CCL4/MIP-1 beta Concentration (CCL4/MIP-1 beta; [15]): 23847.2 pg/mL | CCL4/MIP-1 beta MFI (CCL4/MIP-1 beta; [15]): 13.3 | CCL4/MIP-1 beta Concentration (CCL4/MIP-1 beta; [16]): 25629.7 pg/ml and 22956.0 pg/ml (2×) | CCL4/MIP-1 beta MFI (CCL4/MIP-1 beta; [16]): 14.0 and 13.0 (2×) | CCL4/MIP-1 beta Concentration (CCL4/MIP-1 beta; [17]): 13759.1 pg/mL | CCL4/MIP-1 beta MFI (CCL4/MIP-1 beta; [17]): 11.3 | CCL4/MIP-1 beta Concentration (CCL4/MIP-1 beta; [18]): 19701.2 pg/ml (2×) and 1874.9 pg/ml | CCL4/MIP-1 beta MFI (CCL4/MIP-1 beta; [18]): 12.0 (2×) and 10.0 | LPS-induced CCL-4 (in words) (CCL4/MIP-1 beta): significantly reduced
